Values of other authors in PMC3045272 (Acta Crystallographica Section D: Biological Crystallography, 2011).

Test system: Cn (calcineurin)
Parameters: method as in Landrieu et al., 2010
Conditions: modification of the fourth residue; ref Landrieu et al., 2010

Which “binding of the compound–CypA complex to Cn” value does the source give for Debio 025 here?
Its value is “prevents binding of the Debio 025–CypA complex to Cn”.
